# Laboratory results: patent US11214578B2, “Urea/carbamates FAAH MAGL or dual FAAH/MAGL inhibitors and uses thereof” (Northeastern University, priority 2014, dated 2022)
# Assays:
# Format in all cases: biochemical
# ΔTM rat FAAH = molecular target: T1, ΔTM rat FAAH (Rattus norvegicus, UniProt P97612); experiment: Fluorescent assay protocol for ΔTM rat FAAH (AAMCA substrate); conditions: 15 min preincubation, read-out: IC50 rFAAH
# T1 construct: Preparation of Transmembrane Domain-Deleted Rat FAAH (ΔTM rFAAH); made in house; host or cells: E. coli
# T1 sequence (P97612 30-579 limits assumed): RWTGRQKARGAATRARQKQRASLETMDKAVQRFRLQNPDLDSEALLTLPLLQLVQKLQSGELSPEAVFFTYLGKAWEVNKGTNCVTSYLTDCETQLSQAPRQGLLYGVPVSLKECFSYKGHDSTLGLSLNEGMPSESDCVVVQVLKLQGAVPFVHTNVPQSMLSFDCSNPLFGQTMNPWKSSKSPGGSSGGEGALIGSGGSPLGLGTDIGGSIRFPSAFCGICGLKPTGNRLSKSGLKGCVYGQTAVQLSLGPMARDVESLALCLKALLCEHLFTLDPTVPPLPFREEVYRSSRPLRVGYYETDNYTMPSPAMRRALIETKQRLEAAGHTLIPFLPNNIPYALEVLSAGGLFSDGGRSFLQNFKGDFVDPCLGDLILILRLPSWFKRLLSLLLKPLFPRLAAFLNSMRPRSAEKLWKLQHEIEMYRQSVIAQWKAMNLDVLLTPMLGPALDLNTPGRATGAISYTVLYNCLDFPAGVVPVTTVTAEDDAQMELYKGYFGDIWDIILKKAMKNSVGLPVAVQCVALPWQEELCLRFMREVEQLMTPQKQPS
# Protocol: Procedure was followed as described for hMAGL, except that arachidonoyl-methyl coumarin amide (AAMCA) was used as fluorigenic substrate. […] For the screening assay, 3 concentrations (1 μM, 10 μM, and 100 μM) of test compounds, 15 μg of ΔTM rFAAH and assay buffer were pre-incubated for 15 min at 25° C. […] The fluorescence reading at the 3 hour time point (linear enzyme kinetics) was used to calculate percent inhibition based on control assays without inhibitor present. All FAAH assays were performed in triplicate for each inhibitor concentration, and IC50 values determined using Prizm software (GraphPad Software, Inc.).
# Human MAGL (hMAGL) = molecular target: T2, Human MAGL (hMAGL) (Homo sapiens, UniProt Q99685); experiment: Fluorescent assay protocol for hMAGL (AHMMCE substrate); conditions: recombinant human MAGL, AHMMCE substrate, 15 min preincubation; read-out: IC50 hMAGL
# T2 construct: hexahistidine; made in house; host or cells: E. coli
# T2 sequence (Q99685 1-303): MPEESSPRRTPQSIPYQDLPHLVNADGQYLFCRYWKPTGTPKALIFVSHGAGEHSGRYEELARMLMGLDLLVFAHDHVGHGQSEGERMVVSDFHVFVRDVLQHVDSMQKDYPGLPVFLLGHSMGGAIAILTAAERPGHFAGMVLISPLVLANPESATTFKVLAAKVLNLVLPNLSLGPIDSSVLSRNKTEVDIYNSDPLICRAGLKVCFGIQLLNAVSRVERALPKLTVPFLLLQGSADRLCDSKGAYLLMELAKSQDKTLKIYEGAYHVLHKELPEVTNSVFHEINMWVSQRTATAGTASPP
# Protocol: (§1) This medium throughput assay involved a 96-well plate format in which hMAGL activity was monitored by the hydrolysis of the substrate 7-hydroxy-6-methoxy-4-methylcoumarin ester (AHMMCE) to form the fluorescent product, coumarin. […] Upon the addition of AHMMCE, the reaction was incubated at 25° C. for 120 min; fluorescence readings were taken every 15 min at 360 nm/460 nm (λexcitation/λemission) using a Synergy HT Plate Reader (Bio-Tek, Winooski, Vt.). […] External standards were used to convert relative fluorescence units to the amount of 4-methylcoumarin formed. All MAGL assays were performed in triplicate for each inhibitor concentration, and IC50 values were calculated using Prizm software (GraphPad Software, Inc., San Diego, Calif.).
# Human FAAH (MBPΔTMhFAAH) = molecular target: T3, Human FAAH (MBPΔTMhFAAH) (Homo sapiens, UniProt O00519); experiment: Fluorescent assay protocol for hFAAH; conditions: human FAAH (MBP fusion, ΔTM), procedure as for rFAAH
# T3 construct: made in house; host or cells: E. coli (pMALcE4 vector)
# T3 sequence (O00519 30-579 limits assumed): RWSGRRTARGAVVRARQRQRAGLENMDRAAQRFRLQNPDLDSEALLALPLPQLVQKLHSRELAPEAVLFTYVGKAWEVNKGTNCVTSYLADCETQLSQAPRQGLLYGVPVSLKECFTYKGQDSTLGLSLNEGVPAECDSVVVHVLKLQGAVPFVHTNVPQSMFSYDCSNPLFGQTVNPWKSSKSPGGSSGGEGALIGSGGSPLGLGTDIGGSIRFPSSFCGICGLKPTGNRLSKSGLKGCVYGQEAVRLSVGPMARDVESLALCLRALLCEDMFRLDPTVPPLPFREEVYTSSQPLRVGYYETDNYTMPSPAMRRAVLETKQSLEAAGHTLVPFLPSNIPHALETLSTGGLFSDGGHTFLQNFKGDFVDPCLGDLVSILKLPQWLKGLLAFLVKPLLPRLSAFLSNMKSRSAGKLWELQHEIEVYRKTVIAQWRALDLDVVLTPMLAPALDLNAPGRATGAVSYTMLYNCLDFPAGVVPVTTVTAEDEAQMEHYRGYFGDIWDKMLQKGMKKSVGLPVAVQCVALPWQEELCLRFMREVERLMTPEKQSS
# Protocol: Human FAAH without putative transmembrane domain following maltose binding protein was expressed in E. coli cells using pMALcE4 vector Alapafuja et al J. Med. Chem. (2012) 55: 10074-89.
# Procedure was followed as described for hMAGL, except that arachidonoyl-methyl coumarin amide (AAMCA) was used as fluorigenic substrate. Compounds were diluted in 50:50 DMSO/assay buffer (50 mM HEPES, 1 mM EDTA, 0.1% BSA, pH 7.4) so as to have a final DMSO concentration below 8% in each reaction. For the screening assay, 3 concentrations (1 μM, 10 μM, and 100 μM) of test compounds, 15 μg of ΔTM rFAAH and assay buffer were pre-incubated for 15 min at 25° C. AAMCA (20 μM, 2×Km) was added prior to incubation at 25° C. and kinetic fluorescence reading every 20 minutes (λex=360/λem=460) for 4 hours on a BioTek Synergy HT Microplate Reader (BioTek Instruments, Winooski, Vt.). The fluorescence reading at the 3 hour time point (linear enzyme kinetics) was used to calculate percent inhibition based on control assays without inhibitor present. All FAAH assays were performed in triplicate for each inhibitor concentration, and IC50 values determined using Prizm software (GraphPad Software, Inc.).
# Procedure was followed as described for rFAAH.
# Rat MAGL (rMAGL) = molecular target: T4, Rat MAGL (rMAGL) (Rattus norvegicus, UniProt Q8R431); experiment: Fluorescent assay protocol for rMAGL; conditions: recombinant rat MAGL, procedure as for hMAGL; read-out: IC50 rMAGL
# T4 construct: made in house; host or cells: E. coli
# T4 sequence (Q8R431 1-303): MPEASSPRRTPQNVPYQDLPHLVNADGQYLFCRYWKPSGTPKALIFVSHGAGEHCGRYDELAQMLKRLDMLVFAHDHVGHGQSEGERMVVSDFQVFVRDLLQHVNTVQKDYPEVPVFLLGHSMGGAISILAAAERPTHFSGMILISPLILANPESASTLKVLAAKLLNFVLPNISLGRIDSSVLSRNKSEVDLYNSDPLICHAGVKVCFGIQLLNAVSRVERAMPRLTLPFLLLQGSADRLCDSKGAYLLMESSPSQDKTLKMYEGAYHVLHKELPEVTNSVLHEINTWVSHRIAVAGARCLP
# Protocol: as §1
# Procedure was followed as described for hMAGL.
Compound,IC50 (ΔTM rat FAAH) [nM],IC50 (Human MAGL (hMAGL)) [nM],IC50 (Human FAAH (MBPΔTMhFAAH)) [nM],IC50 (Rat MAGL (rMAGL)) [nM]
6-Chloropyridin-2-yl 4-(benzhydryl)piperidine-1-carboxylate [Example 51],10 to 100,> 1000,10 to 100,> 1000
"C[C@@H]1CN(C(=O)Nc2cccc(-c3cccc(C(N)=O)c3)c2)CCN1Cc1ccc2ccccc2n1 [Example 2, (R)—N-(3′-carbamoyl-[1,1′-biphenyl]-3-yl)-3-methyl-4-(quinolin-2-ylmethyl)piperazine-1-carboxamide]",110 to 1000,> 1000,> 1000,> 1000
"C[C@H]1CN(Cc2cccc(Oc3ccccc3)c2)CCN1C(=O)Nc1cccc(-c2cccc(C(N)=O)c2)c1 [Example 4, (S)—N-(3′-carbamoyl-[1,1′-biphenyl]-3-yl)-2-methyl-4-(3-phenoxybenzyl)piperazine-1-carboxamide]",10 to 100,> 1000,10 to 100,> 1000
"C[C@H]1CN(Cc2cccc(Oc3ccccc3)c2)CCN1C(=O)Nc1cncc(-c2cccc(C#N)c2)c1 [Example 5, (S)—N-(5-(3-cyanophenyl)pyridin-3-yl)-2-methyl-4-(3-phenoxybenzyl)piperazine-1-carboxamide]",> 1000,> 1000,> 1000,> 1000
"NC(=O)c1cccc(-c2cccc(NC(=O)N3CCN(Cc4cnc5ccccc5c4)CC3)c2)c1 [Example 6, N-(3′-carbamoyl-[1,1′-biphenyl]-3-yl)-4-(quinolin-3-ylmethyl)piperazine-1-carboxamide]",10 to 100,110 to 1000,10 to 100,110 to 1000
"NC(=O)c1cccc(-c2cccc(NC(=O)N3CCN(C4c5ccccc5-c5ccccc54)CC3)c2)c1 [Example 8, N-(3′-carbamoyl-[1,1′-biphenyl]-3-yl)-4-(9H-fluoren-9-yl)piperazine-1-carboxamide]",10 to 100,> 1000,10 to 100,> 1000
"NC(=O)c1cccc(-c2cccc(NC(=O)N3CCN(c4ccccn4)CC3)c2)c1 [Example 9, N-(3′-carbamoyl-[1,1′-biphenyl]-3-yl)-4-(pyridin-2-yl)piperazine-1-carboxamide]",10 to 100,> 1000,10 to 100,> 1000
"NC(=O)c1cccc(-c2cccc(NC(=O)N3CCN(Cc4ccc(-c5ccccc5)cc4)CC3)c2)c1 [Example 10, 4-([1,1′-biphenyl]-4-ylmethyl)-N-(3′-carbamoyl-[1,1′-biphenyl]-3-yl)piperazine-1-carboxamide]",10 to 100,> 1000,10 to 100,> 1000
"NC(=O)c1cccc(-c2cccc(NC(=O)N3CCN(c4ccccc4)CC3)c2)c1 [Example 11, N-(3′-carbamoyl-[1,1′-biphenyl]-3-yl)-4-phenylpiperazine-1-carboxamide]",10 to 100,> 1000,10 to 100,> 1000
"NC(=O)c1cccc(-c2cccc(NC(=O)N3CCN(Cc4ccc5ccccc5n4)CC3)c2)c1 [Example 12, N-(3′-carbamoyl-[1,1′-biphenyl]-3-yl)-4-(quinolin-2-ylmethyl)piperazine-1-carboxamide]",10 to 100,> 1000,10 to 100,> 1000
"CC(C)C(c1ccccc1)N1CCN(C(=O)Oc2cccc(C#N)c2)CC1 (stereo not drawn) [Example 35, 3-Cyanophenyl 4-(2-methyl-1-phenylpropyl)piperazine-1-carboxylate]",> 1000,> 1000,> 1000,–
"N#Cc1cccc(OC(=O)N2CCN(C(c3ccccc3)C3CCCC3)CC2)c1 (stereo not drawn) [Example 37, 3-cyanophenyl 4-(cyclopentyl(phenyl)methyl)piperazine-1-carboxylate]",10 to 100,–,10 to 100,–
"N#Cc1cccc(OC(=O)N2CCN(C(c3ccc(F)cc3)c3ccc(F)cc3)CC2)c1 [Example 40, 3-cyanophenyl 4-(bis(4-fluorophenyl)methyl)piperazine-1-carboxylate]",> 1000,–,> 1000,–
"N#Cc1cccc(OC(=O)N2CCN(C3c4ccccc4-c4ccccc43)CC2)c1 [Example 41, 3-cyanophenyl 4-(9H-fluoren-9-yl)piperazine-1-carboxylate]",110 to 1000,–,110 to 1000,–
"N#Cc1cccc(OC(=O)N2CCN(C(c3ccccc3)c3ccccc3)CC2)c1 [Example 44, 3-Cyanophenyl 4-benzhydrylpiperazine-1-carboxylate]",10 to 100,–,10 to 100,–
"N#Cc1ccc(F)c(OC(=O)N2CCC(C(c3ccccc3)c3ccccc3)CC2)c1 [Example 49, 5-cyano-2-fluorophenyl 4-benzhydrylpiperidine-1-carboxylate]",> 1000,–,> 1000,–
"N#Cc1cc(O)cc(OC(=O)N2CCC(C(c3ccccc3)c3ccccc3)CC2)c1 [Example 50, 3-cyano-5-hydroxyphenyl 4-benzhydrylpiperidine-1-carboxylate]",> 1000,–,> 1000,–
"N#Cc1cccc(OC(=O)N2CCC(OC(c3ccccc3)c3ccccc3)CC2)c1 [Example 58, 3-cyanophenyl 4-(benzhydryloxy)piperidine-1-carboxylate]",> 1000,–,> 1000,–
